# Measurements as given in patent US7223865B2, “Chromogenic compounds, and use thereof as enzyme substrates” (Biomerieux, priority 2003, dated 2007).
# Experiments:
# Assay in all cases: L-alanine-aminopeptidase activity on gelled medium, Example 4
# Assay type in all cases: cell-based
# Escherichia coli (032) = settings: 0.3 g/l, after the addition of HCl
# Procedure: (§1) A gelled medium comprising L-Ala-2-MeOAPA or L-Ala-2,5-diMeOAPA is prepared as follows: 46.37 g of Columbia agar are added to 1 liter of distilled water and then autoclaved. This reaction medium is separated into two media of equivalent volume. Each of these media comprises, respectively: 0.3 g/l of L-Ala-2-MeOAPA, introduced by means of a stock solution in DMSO, and 0.3 g/l of L-Ala-2,5-diMeOAPA, also introduced by means of a stock solution in DMSO. Microorganisms derived from the applicant's collection were seeded onto each of the media, by delimitation as three dials, using a suspension at 0.5 McFarland. The dishes were incubated at 37° C. for 24 hours. The color of these colonies and also the intensity of this color were noted after the addition of HCl.
# Citrobacter koseri (012) = settings: 0.3 g/l, after the addition of HCl
# Procedure: as §1
# Proteus mirabilis (037) = settings: 0.3 g/l, after the addition of HCl
# Procedure: as §1, with “The dishes were incubated at 37° C. for 24 hours.” left out
# [1] = tested on: Streptococcus agalactiae (001); settings: 0.3 g/l, after the addition of HCl
# Procedure: as §1, with “The dishes were incubated at 37° C. for 24 hours.” left out
# [2] = tested on: Staphylococcus aureus (035); settings: 0.3 g/l, after the addition of HCl
# Procedure: as §1, with “The dishes were incubated at 37° C. for 24 hours.” left out
# [3] = tested on: Enterobacter cloacae (061); settings: 0.3 g/l, after the addition of HCl
# Procedure: as §1, with “The dishes were incubated at 37° C. for 24 hours.” left out
# Listeria innocua (036) = settings: 0.3 g/l, after the addition of HCl
# Procedure: as §1, with “The dishes were incubated at 37° C. for 24 hours.” left out
# [4] = tested on: Enterococcus faecalis (117); settings: for Color / Intensity: 0.3 g/l, after the addition of HCl
# Procedure: as §1, with “The dishes were incubated at 37° C. for 24 hours.” left out
# Candida albicans (077) = settings: 0.3 g/l, after the addition of HCl
# Procedure: as §1, with “The dishes were incubated at 37° C. for 24 hours.” left out
# [5] = tested on: Klebsiella pneumoniae (023); settings: 0.3 g/l, after the addition of HCl
# Procedure: as §1, with “The dishes were incubated at 37° C. for 24 hours.” left out
structure (smiles),measurement,setting,value
"COc1cc(-c2c3ccccc3nc3ccccc23)c(OC)cc1NC(=O)[C@H](C)N [L-Ala-2,5-diMeOAPA, L-alanyl-2,5-dimethoxyaminophenylacridine]",Color,Escherichia coli (032); 24 H,Yellow-orange
same,Intensity,Escherichia coli (032); 24 H,1.5
same,Color,Escherichia coli (032); 48 h,Yellow-orange
same,Intensity,Escherichia coli (032); 48 h,2
same,Color,Citrobacter koseri (012); 24 H,orange
same,Intensity,Citrobacter koseri (012); 24 H,1
same,Color,Citrobacter koseri (012); 48 h,Yellow-orange
same,Intensity,Citrobacter koseri (012); 48 h,2.5
same,Color,Proteus mirabilis (037); 24 H,colorless
same,Intensity,Proteus mirabilis (037); 24 H,0
same,Color,Proteus mirabilis (037); 48 h,orange
same,Intensity,Proteus mirabilis (037); 48 h,0.5
same,Color,[1]; 24 H,colorless
same,Intensity,[1]; 24 H,0
same,Color,[1]; 48 h,colorless
same,Intensity,[1]; 48 h,0
same,Color,[2]; 24 H,colorless
same,Intensity,[2]; 24 H,0
same,Color,[2]; 48 h,colorless
same,Intensity,[2]; 48 h,0
same,Color,[3]; 24 H,Yellow-orange
same,Intensity,[3]; 24 H,1.5
same,Color,[3]; 48 h,Yellow-orange
same,Intensity,[3]; 48 h,2
same,Color,Listeria innocua (036); 24 H,colorless
same,Intensity,Listeria innocua (036); 24 H,0
same,Color,Listeria innocua (036); 48 h,colorless
same,Intensity,Listeria innocua (036); 48 h,0
same,Color,[4]; 24 H,Yellow-orange
same,Intensity,[4]; 24 H,0.5
same,Color,[4]; 48 h,Yellow-orange
same,Intensity,[4]; 48 h,3
same,L-alanine-aminopeptidase activity,[4]; after incubation for 48 hours,exhibits an activity
same,Color,Candida albicans (077); 24 H,colorless
same,Intensity,Candida albicans (077); 24 H,0
same,Color,Candida albicans (077); 48 h,colorless
same,Intensity,Candida albicans (077); 48 h,0
same,Color,[5]; 24 H,orange
same,Intensity,[5]; 24 H,1
same,Color,[5]; 48 h,Yellow-orange
same,Intensity,[5]; 48 h,2.5
